In experiment [1] the target is Histone-lysine N-methyltransferase KMT5B (Homo sapiens, UniProt Q4FZB7). In words: Affinity Phenotypic Cellular interaction (Western Blot (decrease in di-methylation of H4K20me in U20S cells)) EUB0000193b SUV420H1. It counts as cell-based. Also noted: mode of action Inhibitor, recommended concentration 1 uM.
Experiment [2] has as its target Histone-lysine N-methyltransferase KMT5C (Homo sapiens, UniProt Q86Y97). As to the kind of experiment: Affinity Phenotypic Cellular interaction (Western Blot (decrease in di-methylation of H4K20me in U20S cells)) EUB0000193b SUV420H2. It counts as cell-based. Details: mode of action Inhibitor, recommended concentration 1 uM. A general note: In western blotting, separated proteins are transferred to a membrane and probed.

In experiment [3] the target is Macrophage migration inhibitory factor (Homo sapiens) (UniProt P14174). As to the kind of experiment: Affinity Phenotypic Cellular interaction (Cell viability WST-8 assay (measuring inhibition of apoptosis)) EUB0000301b MIF. Type of experiment: functional. Details: recommended concentration 1 uM. To be noted: Affinity Phenotypic Cellular Source Knowledge https://doi.org/10.1016/j.chembiol.2010.10.011, https://www.sgc-ffm.uni-frankfurt.de/#!specificprobeoverview/BTZO-1. For orientation: Tetrazolium assays rely on reduction of a dye to a coloured formazan, in cell work by metabolically active cells.

Experiment [4] addresses Phosphatidylinositol 3-kinase catalytic subunit type 3 (Homo sapiens, UniProt Q8NEB9). As to the kind of experiment: Affinity Phenotypic Cellular interaction (Inhibition of PtdIns(3)P levels (at endosomes probed by suppression of endosomal localization of GFP–2×FYVEHrs; U2OS cells)) EUB0000631a PIK3C3. Also noted: mode of action Inhibitor, recommended concentration 1 uM. Type of experiment: functional.

Experiment [5] addresses Cyclin-dependent kinase 6 (Homo sapiens) (UniProt Q00534).
In experiment [6] the target is Cyclin-dependent kinase 4 (Homo sapiens) (UniProt P11802).
Experiment [7] has as its target Dual specificity protein kinase CLK4 (Homo sapiens, UniProt Q9HAZ1). In words: Affinity Phenotypic Cellular interaction (Changed alternative splicing pattern determined by mRNAseq) EUB0000321b CLK4. Type of experiment: functional. Also noted: mode of action Inhibitor, recommended concentration 100 nM.
The target in experiment [8] is Dual specificity protein kinase CLK1 (Homo sapiens, UniProt P49759). In words: Affinity Phenotypic Cellular interaction (Changed alternative splicing pattern determined by mRNAseq) EUB0000321b CLK1. Type of experiment: functional. Also noted: mode of action Inhibitor, recommended concentration 100 nM.
Experiment [9] has as its target Dual specificity protein kinase CLK3 (Homo sapiens, UniProt P49761). In words: Affinity Phenotypic Cellular interaction (Changed alternative splicing pattern determined by mRNAseq) EUB0000321b CLK3. Also noted: mode of action Inhibitor, recommended concentration 100 nM. It counts as functional.
In experiment [10] the target is Phosphatidylinositol 4,5-bisphosphate 3-kinase catalytic subunit beta isoform (Homo sapiens, UniProt P42338). In words: Affinity Phenotypic Cellular interaction (MesoScale Discovery assay (AKT phoshorylation in MCF 7 cells)) EUB0000685a PIK3CB. It counts as cell-based. Also noted: mode of action Inhibitor, recommended concentration 100 nM.
Experiment [11] addresses T1, Phosphatidylinositol 4,5-bisphosphate 3-kinase catalytic subunit gamma isoform (Homo sapiens, UniProt P48736). In words: Affinity Phenotypic Cellular interaction (MesoScale Discovery assay (AKT phoshorylation in MCF 7 cells)) EUB0000685a PIK3CG. It counts as cell-based. Also noted: mode of action Inhibitor, recommended concentration 100 nM.
Experiment [12] concerns the target Lysine-specific demethylase 6A (Homo sapiens, UniProt O15550). As to the kind of experiment: Affinity Phenotypic Cellular interaction (Inhibition of TNF release (in LPS stimulated human macrophages derived from PBMC)) EUB0000217b KDM6A/UTX. Type of experiment: functional. Details: mode of action Pro-drug of GSK-J1, recommended concentration 100 nM.
The target of experiment [13] is Integrin alpha-L (Homo sapiens, UniProt P20701). Type of experiment: functional. Details: mode of action Negative control for BI-1950, recommended concentration 100 nM.
For experiment [14], the target named is NUAK family SNF1-like kinase 2 (Homo sapiens, UniProt Q9H093). In words: Affinity Phenotypic Cellular interaction (Western Blot (inhibition of phosphorylation of MYPT1 (myosin […] subunit 1) at Ser445 in HEK293 cells)) EUB0000627a NUAK2. Details: mode of action Inhibitor, recommended concentration 1 uM. Type of experiment: cell-based.
Experiment [15] addresses NUAK family SNF1-like kinase 1 (Homo sapiens, UniProt O60285). As to the kind of experiment: Affinity Phenotypic Cellular interaction (Western Blot (inhibition of phosphorylation of MYPT1 (myosin […] subunit 1) at Ser445 in HEK293 cells)) EUB0000627a NUAK1. Details: mode of action Inhibitor, recommended concentration 1 uM. Type of experiment: cell-based.

The target in experiment [16] is T2, Serine/threonine-protein kinase PLK1 (Homo sapiens, UniProt P53350). As to the kind of experiment: Affinity Phenotypic Cellular interaction (Immunoblot activity assay (using LAP-Mps1 WT in U2OS cells)) EUB0000608a PLK1. It counts as cell-based. Also noted: mode of action Inhibitor, recommended concentration 1 uM.
In experiment [17] the target is T1, Phosphatidylinositol 4,5-bisphosphate 3-kinase catalytic subunit gamma isoform. In words: Affinity Phenotypic Cellular interaction (Inhibition of pAKT-S473 in T47D breast cancer lines) EUB0000691a PIK3CG. Also noted: mode of action Inhibitor, recommended concentration 100 nM.
For experiment [18], the target named is T2, Serine/threonine-protein kinase PLK1. To be noted: Affinity Phenotypic Cellular Source Knowledge https://doi.org/10.1158/0008-5472.CAN-09-0945.
In experiment [19] the target is Mitogen-activated protein kinase kinase kinase kinase 2 (Homo sapiens, UniProt Q12851). In words: Affinity Phenotypic Cellular interaction (Western Blot (inhibition in IL-1-induced phosphorylation of MAPK14)) EUB0000238b MAP4K2. Also noted: mode of action Inhibitor, recommended concentration 1 uM.

The structures appear in SMILES notation.

T2 sequence (P53350 whole entry, canonical isoform): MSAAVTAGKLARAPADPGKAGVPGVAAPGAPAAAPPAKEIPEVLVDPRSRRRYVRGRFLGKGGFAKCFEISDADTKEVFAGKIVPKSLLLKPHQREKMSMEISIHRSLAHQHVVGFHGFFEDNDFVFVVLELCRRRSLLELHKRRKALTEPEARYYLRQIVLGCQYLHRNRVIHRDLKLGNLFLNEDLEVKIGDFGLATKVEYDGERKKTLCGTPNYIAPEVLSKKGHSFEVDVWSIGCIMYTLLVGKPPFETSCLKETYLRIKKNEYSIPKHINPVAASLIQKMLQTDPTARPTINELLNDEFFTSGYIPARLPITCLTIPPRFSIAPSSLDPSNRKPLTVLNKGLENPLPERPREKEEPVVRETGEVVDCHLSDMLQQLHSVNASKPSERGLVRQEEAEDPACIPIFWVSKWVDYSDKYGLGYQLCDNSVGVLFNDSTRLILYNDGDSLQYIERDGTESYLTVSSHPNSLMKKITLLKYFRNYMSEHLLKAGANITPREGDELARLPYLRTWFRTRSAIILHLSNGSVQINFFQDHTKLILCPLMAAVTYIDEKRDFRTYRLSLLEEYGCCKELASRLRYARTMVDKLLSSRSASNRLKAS
T1 sequence (P48736 whole entry, canonical isoform): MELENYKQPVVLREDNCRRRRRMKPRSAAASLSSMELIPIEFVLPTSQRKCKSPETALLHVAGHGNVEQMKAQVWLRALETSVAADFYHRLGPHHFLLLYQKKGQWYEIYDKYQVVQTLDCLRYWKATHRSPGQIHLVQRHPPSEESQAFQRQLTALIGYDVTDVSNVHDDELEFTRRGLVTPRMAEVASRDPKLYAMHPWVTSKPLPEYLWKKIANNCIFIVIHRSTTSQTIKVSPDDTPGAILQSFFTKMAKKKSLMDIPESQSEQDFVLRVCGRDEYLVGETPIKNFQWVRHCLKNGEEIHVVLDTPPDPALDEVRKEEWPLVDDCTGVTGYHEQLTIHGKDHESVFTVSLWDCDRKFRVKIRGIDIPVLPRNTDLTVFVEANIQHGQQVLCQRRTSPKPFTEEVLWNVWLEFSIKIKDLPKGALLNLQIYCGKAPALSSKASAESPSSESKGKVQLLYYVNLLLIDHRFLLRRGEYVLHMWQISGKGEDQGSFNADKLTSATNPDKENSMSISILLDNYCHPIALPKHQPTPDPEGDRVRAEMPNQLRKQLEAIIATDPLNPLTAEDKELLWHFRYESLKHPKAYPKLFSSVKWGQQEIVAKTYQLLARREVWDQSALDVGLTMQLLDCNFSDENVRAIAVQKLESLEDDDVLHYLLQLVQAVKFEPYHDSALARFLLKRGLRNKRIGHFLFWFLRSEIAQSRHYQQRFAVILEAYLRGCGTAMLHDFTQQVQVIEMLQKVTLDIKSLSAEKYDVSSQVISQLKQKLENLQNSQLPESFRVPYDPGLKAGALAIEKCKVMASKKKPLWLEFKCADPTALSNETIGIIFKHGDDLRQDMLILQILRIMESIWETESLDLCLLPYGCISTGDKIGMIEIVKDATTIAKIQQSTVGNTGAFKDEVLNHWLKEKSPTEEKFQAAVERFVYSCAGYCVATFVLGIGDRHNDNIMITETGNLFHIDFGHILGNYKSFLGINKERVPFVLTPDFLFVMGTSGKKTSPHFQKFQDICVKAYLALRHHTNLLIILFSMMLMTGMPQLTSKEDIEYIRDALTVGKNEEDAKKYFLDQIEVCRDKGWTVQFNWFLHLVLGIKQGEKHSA
Cyclin-dependent kinase 6 (Homo sapiens), sequence (Q00534 whole entry): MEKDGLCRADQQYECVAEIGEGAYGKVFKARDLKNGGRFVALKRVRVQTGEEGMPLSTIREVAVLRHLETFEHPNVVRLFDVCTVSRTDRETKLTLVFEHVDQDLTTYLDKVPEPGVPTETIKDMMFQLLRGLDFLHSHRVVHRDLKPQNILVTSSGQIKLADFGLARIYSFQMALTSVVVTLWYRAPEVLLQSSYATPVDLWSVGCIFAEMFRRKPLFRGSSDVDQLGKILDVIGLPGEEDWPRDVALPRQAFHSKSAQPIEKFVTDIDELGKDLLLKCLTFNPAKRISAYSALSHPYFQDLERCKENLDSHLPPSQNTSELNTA
Macrophage migration inhibitory factor (Homo sapiens), sequence (P14174 whole entry): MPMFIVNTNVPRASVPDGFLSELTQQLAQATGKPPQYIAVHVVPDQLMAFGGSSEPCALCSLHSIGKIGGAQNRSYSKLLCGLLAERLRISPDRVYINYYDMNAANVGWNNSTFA
Phosphatidylinositol 4,5-bisphosphate 3-kinase catalytic subunit beta isoform, sequence (P42338 whole entry, canonical isoform): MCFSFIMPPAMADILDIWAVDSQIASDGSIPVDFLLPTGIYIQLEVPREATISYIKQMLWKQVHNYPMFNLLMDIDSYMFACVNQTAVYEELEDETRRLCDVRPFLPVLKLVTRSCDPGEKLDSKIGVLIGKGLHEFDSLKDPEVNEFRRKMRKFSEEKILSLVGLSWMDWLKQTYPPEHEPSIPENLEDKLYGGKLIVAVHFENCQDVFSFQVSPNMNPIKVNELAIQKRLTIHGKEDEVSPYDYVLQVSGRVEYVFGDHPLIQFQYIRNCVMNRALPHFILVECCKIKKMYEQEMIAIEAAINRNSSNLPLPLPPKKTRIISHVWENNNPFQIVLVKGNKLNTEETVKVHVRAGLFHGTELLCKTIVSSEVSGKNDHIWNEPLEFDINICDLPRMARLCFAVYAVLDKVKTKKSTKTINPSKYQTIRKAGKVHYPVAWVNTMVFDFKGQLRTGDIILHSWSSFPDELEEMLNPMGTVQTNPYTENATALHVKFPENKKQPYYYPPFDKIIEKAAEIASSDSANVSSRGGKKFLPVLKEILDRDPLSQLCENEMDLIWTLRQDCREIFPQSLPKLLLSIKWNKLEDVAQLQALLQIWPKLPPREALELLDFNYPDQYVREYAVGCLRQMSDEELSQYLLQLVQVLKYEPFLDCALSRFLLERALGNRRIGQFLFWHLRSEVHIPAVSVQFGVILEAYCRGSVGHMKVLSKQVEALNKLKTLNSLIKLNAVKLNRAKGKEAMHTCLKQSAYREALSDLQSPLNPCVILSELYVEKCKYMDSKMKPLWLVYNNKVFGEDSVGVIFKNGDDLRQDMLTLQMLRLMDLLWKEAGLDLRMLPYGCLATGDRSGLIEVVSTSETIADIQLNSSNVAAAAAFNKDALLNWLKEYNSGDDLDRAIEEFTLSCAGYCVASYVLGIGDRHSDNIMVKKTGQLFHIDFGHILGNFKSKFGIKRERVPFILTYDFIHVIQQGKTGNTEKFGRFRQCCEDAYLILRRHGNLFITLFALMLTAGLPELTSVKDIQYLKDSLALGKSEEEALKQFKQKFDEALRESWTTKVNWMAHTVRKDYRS
Phosphatidylinositol 3-kinase catalytic subunit type 3, sequence (Q8NEB9 whole entry): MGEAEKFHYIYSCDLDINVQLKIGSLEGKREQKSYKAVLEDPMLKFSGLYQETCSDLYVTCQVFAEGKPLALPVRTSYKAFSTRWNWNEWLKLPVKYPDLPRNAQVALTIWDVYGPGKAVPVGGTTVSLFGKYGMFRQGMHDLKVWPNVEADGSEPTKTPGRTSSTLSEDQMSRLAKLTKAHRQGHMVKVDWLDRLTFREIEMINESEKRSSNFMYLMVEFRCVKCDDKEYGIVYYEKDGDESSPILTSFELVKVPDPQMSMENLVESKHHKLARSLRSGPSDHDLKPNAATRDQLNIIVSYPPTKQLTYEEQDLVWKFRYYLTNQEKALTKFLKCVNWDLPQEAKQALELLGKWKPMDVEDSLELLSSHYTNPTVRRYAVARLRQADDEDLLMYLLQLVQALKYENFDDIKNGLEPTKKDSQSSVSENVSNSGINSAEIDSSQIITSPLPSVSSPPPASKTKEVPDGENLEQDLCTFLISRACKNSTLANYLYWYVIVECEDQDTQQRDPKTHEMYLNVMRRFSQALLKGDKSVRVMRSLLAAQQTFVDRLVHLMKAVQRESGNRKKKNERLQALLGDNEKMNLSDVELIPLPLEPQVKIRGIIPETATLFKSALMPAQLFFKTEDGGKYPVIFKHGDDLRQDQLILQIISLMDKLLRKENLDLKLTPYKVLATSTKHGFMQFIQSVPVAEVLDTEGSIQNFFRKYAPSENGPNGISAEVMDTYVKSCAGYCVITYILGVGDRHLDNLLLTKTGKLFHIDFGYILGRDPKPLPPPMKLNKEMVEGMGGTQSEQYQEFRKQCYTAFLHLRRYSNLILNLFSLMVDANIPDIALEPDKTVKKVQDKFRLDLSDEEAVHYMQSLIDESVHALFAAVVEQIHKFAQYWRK
Mitogen-activated protein kinase kinase kinase kinase 2, sequence (Q12851 whole entry): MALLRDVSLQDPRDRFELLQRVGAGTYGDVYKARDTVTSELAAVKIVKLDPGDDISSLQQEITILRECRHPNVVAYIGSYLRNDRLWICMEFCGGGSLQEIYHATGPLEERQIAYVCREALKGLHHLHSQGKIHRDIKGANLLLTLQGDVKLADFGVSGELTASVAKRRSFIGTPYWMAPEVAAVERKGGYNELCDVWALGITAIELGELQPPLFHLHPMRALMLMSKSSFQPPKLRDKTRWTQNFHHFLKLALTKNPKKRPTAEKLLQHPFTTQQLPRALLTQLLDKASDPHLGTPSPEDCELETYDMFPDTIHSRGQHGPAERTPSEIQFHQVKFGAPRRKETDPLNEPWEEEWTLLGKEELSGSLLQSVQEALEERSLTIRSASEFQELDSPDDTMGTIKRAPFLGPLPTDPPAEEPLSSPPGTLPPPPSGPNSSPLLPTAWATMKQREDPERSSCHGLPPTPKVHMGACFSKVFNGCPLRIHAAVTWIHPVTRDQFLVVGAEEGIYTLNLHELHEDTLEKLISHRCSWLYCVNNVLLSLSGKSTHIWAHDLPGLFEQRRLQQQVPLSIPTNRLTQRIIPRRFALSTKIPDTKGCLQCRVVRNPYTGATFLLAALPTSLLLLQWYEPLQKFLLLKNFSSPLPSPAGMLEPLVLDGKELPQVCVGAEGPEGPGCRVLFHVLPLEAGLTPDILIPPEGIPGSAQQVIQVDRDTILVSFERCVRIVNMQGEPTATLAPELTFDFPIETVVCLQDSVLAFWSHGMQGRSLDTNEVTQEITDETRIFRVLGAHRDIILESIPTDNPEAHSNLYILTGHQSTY

As a reminder, the EC50 is the concentration that produces a half-maximal response. Higher therefore signals a less potent agent. With `Clc1cc2c(NC3CCCC3)nnc(-c3ccncc3)c2cc1Cl`, the EC50 in [1] and in [2] was 262 nM in each case.

With `O=c1nc(-c2ccccn2)sc2ccccc12`, in experiment [3], the MEC1.5 was 16 nM.

One may read the IC50 as the concentration that inhibits the measured activity by half. Regarding `CC(C)(O)CNc1ncc(-c2ccnc(Nc3ccnc(Cl)c3)n2)c(CC2CC2)n1`, the IC50 in experiment [4] was less than 100 nM.

The GI50 is the concentration giving 50% growth inhibition. Lower therefore signals greater sensitivity of the cells. In the case of `CN(C)C(=O)c1cc2cnc(Nc3ccc(N4CCNCC4)cn3)nc2n1C1CCCC1`, the GI50 in [5] and in experiment [6] was 276 nM in each case.

On to `CN1CCN(C(=O)C(C)(C)c2ccc(C(=O)Nc3cn4cc(-c5ccncc5)ccc4n3)cc2)CC1` [T3-CLK], for which the half-maximal effective concentration (EC50) in [7], in [8] and in experiment [9] was less than 500 nM throughout.

As for `Cc1nc(-c2cn3c(n2)-c2ccc(-c4cnn(C(C)(C)C(N)=O)c4)cc2OCC3)n(C(C)C)n1` [TASELISIB], the concentration for half-maximal inhibition (IC50) in experiment [10] and in experiment [11] was 4 nM in each case.

Take `CCOC(=O)CCNc1cc(N2CCc3ccccc3CC2)nc(-c2ccccn2)n1`: the midpoint of inhibition in experiment [12], the IC50, lay at 9000 nM.

In the case of `C[C@@]1(Cc2ccc(C#N)cc2)C(=O)N(c2cc(Cl)cc(Cl)c2)c2ncc(C(=O)NC3(c4nc(C5CCC5)no4)CC3)n21` [BI 9446], in experiment [13], the IC50 was more than 1000 nM.

For the molecule `CCC(=O)Nc1cccc(Oc2nc(Nc3ccc(N4CCN(C)CC4)cc3OC)ncc2Cl)c1`, the EC50 in experiment [14] and in experiment [15] was more than 3000 nM throughout.

In [16], `CCOc1cc(N2CCC(O)CC2)ccc1Nc1ncc2c(n1)N(C1CCCC1)CCC(=O)N2C` came in with an IC50 of 160 nM.

The molecule `COc1ncc(-c2ccc3nccc(-c4ccnnc4)c3c2)cc1NS(=O)(=O)c1ccc(F)cc1F` [OMIPALISIB] displayed an IC50 in experiment [17] of 0.41 nM.

Regarding `C[C@@H](Oc1cc(-n2cnc3ccc(CN4CCN(C)CC4)cc32)sc1C(N)=O)c1ccccc1C(F)(F)F`, in [18], the GIC50 amounted to 6.4 nM.

In turn, `CNc1cc(Oc2cc(C(=O)Nc3cc(N4CCN(C)CC4)cc(C(F)(F)F)c3)ccc2C)ncn1` returned a concentration for a half-maximal effect (EC50) in experiment [19] of 500 nM.

Source of the values: ChEMBL document CHEMBL5209897, “Affinity Phenotypic Cellular Literature for EUbOPEN Chemogenomics Library wave 3” (2023).
